Measurements: PubChem BioAssay AID1645848
≈ marks a conversion by molar mass, not a printed value.

Conditions: buffer; pH 7.4; 6.0 h; 150.0 µM

| solubility kinetic [µg/mL] | SMILES |
| --- | --- |
| 17.9 (≈ 42.6 µM) | COc1ccc(C(=O)N[C@@H]2CCC[C@@H]2C(=O)N2CCC(Cc3ccccc3)CC2)cc1 |
| < 1 | Cc1ccccc1CSc1nc2ncc(Br)cc2[nH]1 |
| 17.4 (≈ 39 µM) | CC(=O)c1c(C)c2cnc(Nc3ccc(N4CCNCC4)cn3)nc2n(C2CCCC2)c1=O |
| > 59 | Cc1cnc(-c2ccccc2C2COC2)nc1NCc1ccc(-n2ccnn2)cc1 |
| 62.9 (≈ 121 µM) | O=C1CCCc2cc(S(=O)(=O)Nc3cnccc3C(=O)Nc3nc(-c4ccccc4)cs3)ccc2N1 |
| > 45 | O=C(c1ccc2c(c1)ncn2-c1ccccc1)N1CCCCC1 |
| < 1 | COC(=O)C1=C(C)NC(C)=C(C(=O)OCCCN2CCC(c3ccccc3)(c3ccccc3)CC2)C1c1cccc([N+](=O)[O-])c1.Cl (centres undefined) |
| 43.2 (≈ 112 µM) | NCC(=O)Nc1cccc(-c2nn3c(=O)cc(N4CCNCC4)nc3s2)c1 |
| > 42 | CC(C)(C)n1cnc2cc(C(=O)N3CCCCC3)ccc21 |
| 6.49 (≈ 15.4 µM) | CCOC(=O)c1cnc2ccc(-c3cncc(NS(=O)(=O)c4ccccc4)c3)cn12 |
| < 1 | CCc1ccc2oc(=O)cc(CN3CCN(c4ccccc4F)CC3)c2c1 |
| 2.43 (≈ 7.8 µM) | c1cc(-c2cc(-c3ccncc3)c3cncn3c2)c2[nH]ncc2c1 |
| < 1 | Cc1ccc2nc(NC3=NC(c4[nH]ncc4Cl)C4=C(CCCC4=O)N3)oc2c1 (centres undefined) |
| 1.6 (≈ 5.65 µM) | CCCc1ccc(C(=O)NC(=O)c2ccccc2O)cc1 |
| < 1 | COc1cc(-c2c(C#N)c(N)nc3c2c(C)nn3-c2ccc(F)cc2)ccc1O |
| > 63 | Cc1ccc(S(=O)(=O)c2cnc(SC(C)C(=O)Nc3ccccc3)[nH]c2=O)cc1 (centres undefined) |
| < 1 | O=C(Nc1ccc(Cl)cc1)C(NS(=O)(=O)c1cccs1)c1ccccc1 (centres undefined) |

| solubility kinetic [µg/mL] | SMILES |
| --- | --- |
| < 1 | CCOc1ccc(OCC)c(NC(=O)C(NS(=O)(=O)c2ccc(Br)s2)c2ccccc2)c1 (centres undefined) |
| < 1 | COc1ccccc1NC(=O)C1=C(C)Nc2c(C(=O)Nc3ccc(F)cc3)cnn2C1c1ccc(Cl)cc1 (centres undefined) |
| < 1 | CCOc1ccc(CCNC(=O)c2cc3sccc3n2Cc2ccccn2)cc1OCC |
| < 1 | COc1cc(Nc2nc(-c3ccncc3)nc3ccccc23)ccc1Cl |
| < 1 | CC(=O)N1CCC2(CCCN(c3ccc(-c4ccccc4)cc3)C2)CC1 |
| 6.93 (≈ 17.1 µM) | O=C(O)c1ccnc2cc(-c3nc4ccccc4n3CCN3CCCCC3)sc12 |
| 47.5 (≈ 125 µM) | Cc1ccc(NC(=O)c2ccncc2NS(=O)(=O)c2ccc(C)cc2)cc1 |
| 56.9 (≈ 110 µM) | O=C(Nc1nc(-c2ccccc2)cs1)c1ccncc1NS(=O)(=O)c1ccc(N2CCCC2=O)cc1 |
| 33.2 (≈ 88 µM) | CC(=O)c1c(C)c(C(=O)Nc2cccc([S+](=O)([O-])N(C)C)c2)n(C)c1C |
| 22.4 (≈ 57.5 µM) | COc1ccc(Nc2cc3c(nc2OC)nc(CCc2ccccc2)n3C)cn1 |
| < 1 | CC(=O)Nc1cccc(-c2nc(-c3c(C)noc3C)cc3c2cc(-c2ccccc2)n3C)c1 |
| 18.1 (≈ 43 µM) | CCN(CC)[S+](=O)([O-])c1cc(NC(=O)c2[nH]c(C)c(C(C)=O)c2C)ccc1OC |
| 34.2 (≈ 107 µM) | Cc1cccc2nc(-c3ccccn3)c(Nc3ccc(F)cc3)n12 |
| > 28 | Cc1ccc(NC(=O)c2cc(-c3ccc[nH]3)n[nH]2)cc1F |
| 1.14 (≈ 2.74 µM) | CC(C)c1ccccc1-c1ncc(F)c(NC(C)(C)c2ccc(-n3ccnn3)cc2)n1 |
| < 1 | CCOc1ccc(NC(=O)c2ccc(F)c(S(=O)(=O)N(CC)Cc3ccccc3)c2)cc1 |

Further lines, the molecule ahead of its results:

| SMILES | solubility kinetic [µg/mL] |
| --- | --- |
| Cc1noc(C)c1-c1ccc2ncnc(NCc3ccc4[nH]ccc4c3)c2c1 | < 1 |
| O=S(=O)(Nc1cnc2ccccc2c1)c1ccc(NCc2ccc(Br)cc2O)cc1 | < 1 |
| Cc1cc(C)c(CNC(=O)c2nc(-c3ccc(F)cc3)cc3c2ccn3C(C)C)c(=O)[nH]1 | < 1 |
| CCN1CCN(c2ncc3c(n2)CCN(Cc2cc(Br)cs2)C3)CC1 | 37.1 (≈ 88 µM) |
| CCOC(=O)C1CCN(C(=O)C2(NC(=O)Nc3ccc(F)cc3F)CCCCC2)CC1 | 41.8 (≈ 95.6 µM) |
| Fc1cc(Nc2nc(-c3ccncc3)nc3ccccc23)ccc1OC(F)(F)F | < 1 |
| OCC(O)CCO/N=C1/C(c2c(O)[nH]c3ccccc23)=Nc2ccccc21 (centres undefined) | < 1 |
| NC(CO)(CO)CCc1ccc(Sc2cccc(OCc3ccccc3)c2)cc1Cl | < 1 |
| Cc1cc(N[S+](=O)([O-])c2ccc(NC(=O)Cc3ccc(F)c(F)c3)cc2)no1 | > 60 |
| Oc1ccc(CNc2ccccc2Br)c2cccnc12 | 8.3 (≈ 25.2 µM) |
| O=C(Nc1ccc(Cl)c(S(=O)(=O)N2CCOCC2)c1)c1ccccc1 | < 1 |
| COc1ccccc1C(=O)Nc1ccccc1C(=O)Nc1cccc(SC(F)(F)F)c1 | < 1 |
| COc1cc(Cl)ccc1C(=O)Nc1nc(-c2ccccc2)cs1 | < 1 |
| CCCCN(CC)CCNC(=O)c1cc2c(-c3ccc(Cl)cc3)nn(C)c2s1 | > 62 |
| CCOc1ccc(N2CC(c3nc(-c4ccccn4)no3)CC2=O)cc1 (centres undefined) | > 35 |
| COC(=O)c1ccc(NC(=O)c2nc3ccccc3n(C)c2=O)cc1 | < 1 |
| N#Cc1cc(NC(=O)Nc2nnc(-c3ccncc3)s2)ccc1-c1cn[nH]c1 | < 1 |
| Cc1ccc(OCCn2c(CCNC(=O)c3ccc(Cl)cc3)nc3ccccc32)cc1 | < 1 |
| N#Cc1cccc(-c2csc(N3CCC(C(N)=O)CC3)n2)c1 | 10.7 (≈ 34.3 µM) |
| COc1ccc(S(=O)(=O)N(C(=O)C(C)C)c2ccc3oc(=O)sc3c2)cc1 | 8.8 (≈ 21.6 µM) |
| O=C1CCCC2=C1C(c1ccncc1Cl)N=C(Nc1nc3ccccc3o1)N2 (centres undefined) | 8.82 (≈ 22.4 µM) |
| Cc1ccccc1C(C(=O)NC1CCCCC1)N(C(=O)Cn1ccnc1C)c1cccc(F)c1 (centres undefined) | 3.13 (≈ 6.76 µM) |

| SMILES | solubility kinetic [µg/mL] |
| --- | --- |
| O=C(c1cc2ccccc2[nH]1)N1CCc2c(n(Cc3cccnc3)n(CCc3ccccc3)c2=O)C1 | > 47 |
| CC#CC(=O)N1CCC[C@H]1c1nc(-c2ccc(C(=O)Nc3ccccn3)cc2)c2c(N)nccn12 | > 69 |
| Fc1ccc(Nc2nccc(-c3ccncc3)n2)cc1F | 2.48 (≈ 8.71 µM) |
| CSc1ccccc1N1CCN(CCCCCC(=O)NC2CCCc3ccccc32)CC1 (centres undefined) | 44.7 (≈ 99 µM) |
| CC(CNC(=O)C1CCN(Cc2cc3ccccc3n2Cc2ccccc2)CC1)c1ccccc1 (centres undefined) | 1.05 (≈ 2.25 µM) |
| c1ccc2c(Nc3ccon3)nc(-c3ccncc3)nc2c1 | < 1 |
| COC(C)(C)CCn1nc(Nc2c(C)cccc2C)c2cnc(Nc3ccc(OCCN4CCCC4)c(F)c3)nc21 | 28.3 (≈ 50.3 µM) |
| COc1ccc(NC(=O)c2[nH]c(C)c(C(C)=O)c2C)cc1S(=O)(=O)Nc1cccc(C#N)c1 | 2.28 (≈ 4.9 µM) |
| Nc1cc(-c2nc(Nc3ccc(F)c(F)c3)c3ccccc3n2)ccn1 | < 1 |
| CCOc1ccc(CCNC(=O)c2cc3ccccc3n2C)cc1OCC | 1.63 (≈ 4.44 µM) |
| Fc1ccc(Nc2nc(-c3ccncc3)ncc2-c2ccccc2)cc1F | < 1 |
| Cc1noc(C)c1[S+](=O)([O-])N1CCC2(CC1)CC(c1cccc(C(F)(F)F)c1)=NO2 | < 1 |
| Cc1cnc(-c2ccccc2C2COC2)nc1NCc1ccc(-c2cccnc2)cc1 | > 60 |
| O=C1CCCC2=C1C(c1[nH]ncc1Br)N=C(Nc1nc3ccccc3o1)N2 (centres undefined) | < 1 |
| CCC(CC)c1cc([C@H]2CN3CC[C@H]2C[C@@H]3CNC(=O)Cc2cccs2)nc(-c2ccncc2)n1 | > 72 |
| O=C1Cc2cc(C(=O)c3ccco3)ccc2N1 | > 34 |
| O=C1CCCC2=C1C(c1ccncc1Br)N=C(Nc1nc3ccccc3o1)N2 (centres undefined) | < 1 |
| COc1ccc(CN2CCc3nc(N4CCN(c5ccc(F)cc5)CC4)ncc3C2)c(OC)c1OC | < 1 |
| Cc1cn2nc(-c3nc(C4CCCN(C(=O)c5ccccc5)C4)no3)cc2c(=O)[nH]1 (centres undefined) | 27.5 (≈ 68 µM) |
| Cc1ccc(C(=O)Nc2ccc3oc(-c4cccnc4)nc3c2)cc1[N+](=O)[O-] | < 1 |
| CC(=O)Nc1ccc(NC(=O)C(NS(=O)(=O)c2ccc(Br)s2)c2ccccc2)cc1 (centres undefined) | < 1 |
| Cc1cccc(N2CCN(C(=O)c3ccc4c(c3)C(O)CCCCCN4C)CC2)c1 (centres undefined) | 14.8 (≈ 36.3 µM) |

| SMILES | solubility kinetic [µg/mL] |
| --- | --- |
| O=c1c(-c2cccs2)ccc2n1C[C@H]1C[C@@H]2CN(C2CCOCC2)C1 | > 79 |
| Cc1ccc(-c2cc(C(=O)Nc3ccc(S(=O)(=O)NCc4nccs4)cc3)c3ccccc3n2)cc1C | 1.66 (≈ 3.14 µM) |
| COc1ccc(-c2cc(C)nc3c(-c4ccc(OC)c(OC)c4)c(C)nn23)cc1 | < 1 |
| Cc1cccc(C)c1NC(=O)c1nc(SC(C)C)ncc1Cl | 1.22 (≈ 3.64 µM) |
| NC(=O)C1CCN(c2nc(-c3ccccc3Cl)cs2)CC1 | > 47 |
| Nc1nc2c(s1)C(c1cc(Cl)ccc1F)CC(=O)N2 (centres undefined) | 3.78 (≈ 12.7 µM) |
| COc1ccc(-n2nc(C)c([C@@H]3C=C[C@@H](NCc4cccc(Cl)c4)C3)c2C)cc1 | 46.2 (≈ 113 µM) |
| CN(C)CCOc1ccc(/C(=C(/CCCl)c2ccccc2)c2ccccc2)cc1 | < 1 |
| CCCN1CNc2c(c(=O)[nH]c(=S)n2CCc2ccc(OC)c(OC)c2)C1 | > 58 |
| Cc1sc(NC(=O)Cc2ccc3c(c2)OCO3)nc1-c1ccc2c(c1)CCN2C(=O)c1ccccc1 | < 1 |
| Nc1ncc(S(=O)(=O)N2CCOCC2)s1 | > 37 |
| O=C(Nc1ccc2oc(-c3ccncc3)nc2c1)c1ccccc1Cl | < 1 |
| COC(=O)c1ccc2c(c1)nc1n2[C@@H](CNC(C)=O)COC1 | > 30 |
| Cc1cc(NS(=O)(=O)c2ccc(NC(=O)c3oc4ccccc4c3C)cc2)nc(C)n1 | < 1 |
| Cc1cnc(-c2ccccc2C(C)C)nc1NCc1ccc(-n2ccnn2)cc1 | 6.61 (≈ 17.2 µM) |
| Cc1ccc(-c2nc(C)c(C(=O)Nc3ccc4c(c3)C(=O)N3CCC[C@H]3C(=O)N4)s2)cc1 | 4.88 (≈ 10.9 µM) |
| COc1ncccc1-c1cc2c(ccn2CC2CCN([S+](C)(=O)[O-])CC2)c(N2CCOCC2)n1 | 50.2 (≈ 103 µM) |
| Cc1c(NC2=C(Cl)C(=O)N(c3ccccc3)C2=O)c(=O)n(-c2ccccc2)n1C | < 1 |
| CCN1CCN(CCCOc2ccc(-c3ccccc3)cc2)CC1 | > 48 |
| COC(=O)c1ccnc(NC(=S)N2CCN(c3cccc(C(F)(F)F)c3)CC2)c1 | 2.19 (≈ 5.17 µM) |
| COc1ccc(N(C)C(=O)c2cc3c(s2)-c2ccccc2OC3)cc1 | < 1 |
| Cc1cnc(-c2ccccc2C(F)F)nc1NCc1ccc(-n2ccnn2)cc1 | < 1 |
